For the test, the system named is immortalized human fibroblasts. Nature of the test: Proliferation of immortalized human fibroblasts (MTT, Mosmann method). The test is classed as cell-based. To be noted: MTT O.D. as percent of control; tested range 10^−11M to 10^−3M; measured up to 120 h, treatments repeated every 24 h.

Each structure is given as a SMILES string.

Method: The methods used allow evaluating the effect of substances provided with potential antifibrotic activity on the proliferation of fibroblasts.
A line of immortalized human fibroblasts was used, maintained in a culture in a suitable medium.
In order to carry out the proliferation experiments, the fibroblasts were detached from the flask by means of trypsinization, counted and distributed on 96-well flat-bottom plates at the concentration of 2000 cells/100 μl medium.
Scalar concentrations of metadoxine were added (range of concentration from 10^−11M to 10^−3M).
The plates were maintained in CO2 incubator at 37° C. The proliferation of the cells was measured at 24 h intervals up to 120 h by using the Mosmann method (10), based on the spectrophotometer determination of the conversion of MTT [3-(4,5 dimethylthiazole-2-yl)-2-5 diphenyltetrazolium bromide] to its blue reduction product, formazan, by mitochondrial enzymes of the metabolically active cells.
The optical densities (O.D.) were determined by means of the Titertek Multiscan (Flow) spectrophotometer with 540 nm filter.
The O.D.s of the samples are expressed as percentages of the samples with respect to the control group.

Regarding `Cc1ncc(CO)c(CO)c1O.O=C1CC[C@@H](C(=O)O)N1` [Metadoxine, Pyridoxol L-2-pyrrolidone-5-carboxylate], the “concentration at which metadoxine inhibits the fibrogenic activity / growth of fibroblasts” value is reported as 10^−5 M.
